US9393250B2, “Phthalocyanine compounds useful as RecA inhibitors and methods of using same” (University of Saskatchewan, priority 2012, dated 2016)

What was measured:
E. coli strain ATCC25922 = assay: Antibiotic sensitivity assay (CFUs/ml), E. coli; type: cell-based, Escherichia coli
Experimental: (§1) Bacterial cultures were diluted to 10^5 cells/mL in LB broth (ATCC25922) or MH broth (ATCC27853, ATCC29212, ATCC29213). Antibiotics and/or phthalocyanines were added at indicated concentrations and the culture was incubated at 37° C. Samples were collected at 0, 24, 48, and 72 hours and plated on LB agar (ATCC25922) or tryptic soy blood agar (ATCC27853, ATCC29212, ATCC29213) to determine CFUs/ml.
The ability of 4,4-Fe-PcTs and 3,4-Cu-PcTs to potentiate the activity of ciprofloxacin (abbreviated “CFX”) was tested. Ciprofloxacin inhibits DNA gyrase in bacteria, causing accumulation of double-stranded DNA breaks (DSBs) and inducing the SOS response. The inventors characterized the ability of 4,4-Fe-PcTs and 3,4-Cu-PcTs to potentiate the activity of ciprofloxacin in the pathogenic E. coli strain ATCC25922, which was used previously by Cirz et al. to evaluate the role of SOS response proteins in antibiotic resistance.

[1] = tested on: Enterococcus faecalis ATCC29212; assay: Antibiotic sensitivity assay (CFUs/ml), E. faecalis; type: cell-based; settings: compound 25 μM; ciprofloxacin 6.5 μM
Experimental: as §1
To confirm that the activity of 4,4-Fe-PcTs was not specific to the gram-negative ATCC25922 E. coli, the ability of 4,4-Fe-PcTs to potentiate the activity of ciprofloxacin in another gram-negative (Pseudomonas aeruginosa ATCC27853) strain and two gram-positive (Staphylococcus aureus ATCC29213 and Enterococcus faecalis ATCC29212) strains was evaluated.

[2] = tested on: SOS response (E. coli strain SS996); assay: SOS induction, GFP regulated by the sulA SOS promoter, flow cytometry; type: cell-based, Escherichia coli; settings: 4,4-Fe-PcTs 25 μM, three hours
Experimental: To confirm that the bactericidal antibiotic potentiating activity of 4,4-Fe-PcTs was correlated with reduced SOS induction, SOS induction in the E. coli strain SS996 was monitored. This strain contains a green fluorescent protein (GFP) regulated by the sulA SOS promoter.
SS996 cultures were grown to an optical density at 600 nm (OD600) of 0.3. For cultures treated with 4,4-Fe-PcTs, the 4,4-Fe-PcTs was added to give a concentration of 25 μM and the culture was incubated for three hours at 37° C. Antibiotics were then added to yield concentrations of 2.5 μM (CFX), 40 μM (AMP), 43 μM (KAN), 21 μM (TET), 46 μM (CAM), or 808 μM (SPECT). Samples (˜10^6 cells) were taken immediately before the addition of antibiotics (time zero) and every hour for three hours. Samples were washed once in PBS, and resuspended in PBS prior to analysis by flow cytometry. GFP expression was monitored using flow cytometer (Beckman Coulter, Inc.) with a 488 nm argon laser and a 515-545 nm emission. Flow cytometry data were analyzed using Flowjo (Tree Star, Inc.).

ATCC25922 cells = assay: Hydroxyl radical production (HPF, flow cytometry); type: cell-based, Escherichia coli; settings: 4,4-Fe-PcTs 25 μM; ciprofloxacin 40 nM; three hours
Experimental: To confirm that 4,4-Fe-PcTs inhibited the SOS response by a mechanism independent of blocking hydroxyl radical production, the ability of 4,4-Fe-PcTs to decrease hydroxyl radical levels in the presence of bactericidal antibiotics was assayed. Hydroxyphenyl fluorescein was used to measure hydroxyl radical formation in bacteria. Hydroxyl radical production was measured using flow cytometry with […] fluorescein (HPF, Invitrogen) as described previously. ATCC25922 cells were grown to OD600 of 0.3. For cultures treated with 4,4-Fe-PcTs, the 4,4-Fe-PcTs was added to give a concentration of 25 μM and the culture was incubated for three hours at 37° C. […] Samples (˜10^6 cells) were taken immediately before the addition of antibiotics (time zero) and every hour for three hours. The samples were washed once in PBS, and resuspended in PBS prior to analysis by flow cytometry. Hydroxyl radical production was monitored using a flow cytometer (Beckman Coulter, Inc.) with a 488 nm argon laser and a 515-545 nm emission. Flow cytometry data were analyzed using Flowjo (Tree Star, Inc.).

ATCC29522 cells = assay: Biofilm formation assay (crystal violet); type: cell-based, Escherichia coli; settings: Fe-PcTs 25 μM; ciprofloxacin 40 nM; plastic surface, 96-well plate
Experimental: Biofilm formation on a plastic surface was analyzed using a 96-well plate (Falcon) as described previously. ATCC29522 cells were diluted in LB broth to 1×10^5 CFUs/ml. A 100 μl aliquot of cells was added to each well in the plate. Ciprofloxacin (CFX) was then added at a final concentration of 40 nM to each well and plates were incubated at 37° C. for 20 hours. Wells were aspirated and washed three times with 150 μl of PBS. Wells were stained with 120 μl of 0.1% crystal violet (Fisher) for 20 minutes. The crystal violet stain was aspirated and wells were washed three times with 150 μl of PBS. The plate was air-dried and the dye bound to adherent cells was resolubilized with 150 μl of 30% (v/v) glacial acetic acid (Fisher). The plate was incubated at room temperature for 20 minutes with shaking. The biofilm formation was quantified by measuring the OD600 nm using a plate reader.

EcRecA / EcLexA = EcRecA / EcLexA (Escherichia coli, UniProt P0A7G6); settings: in presence of ATPγS
EcRecA / EcLexA, sequence (P0A7G6 whole entry): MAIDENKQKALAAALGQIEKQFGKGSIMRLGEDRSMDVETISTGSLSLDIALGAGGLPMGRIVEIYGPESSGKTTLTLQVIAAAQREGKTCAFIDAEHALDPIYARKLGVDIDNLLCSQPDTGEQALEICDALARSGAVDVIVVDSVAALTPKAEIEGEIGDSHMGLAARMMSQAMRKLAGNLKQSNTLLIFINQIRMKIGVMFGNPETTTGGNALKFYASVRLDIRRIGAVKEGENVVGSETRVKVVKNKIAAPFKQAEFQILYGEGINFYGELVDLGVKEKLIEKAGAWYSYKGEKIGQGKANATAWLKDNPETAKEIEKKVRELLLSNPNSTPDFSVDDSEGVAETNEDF
Experimental: The LexA cleavage reaction (10 μl) contained 1 μM poly-(dT)45, 2 μM EcRecA, 10 μM EcLexA, 0.1 mM ATP-γ-S, 20 mM MgAc2, 50 mM Hepes-Tris at pH 7.6 and indicated concentrations of 4,4-Fe-PcTs or 3,4-Cu-PcTs. The reaction was incubated for 120 minutes at 21° C. and stopped by the addition of 5 μl of loading buffer (30% glycerol, 10% SDS, 0.2 M Tris-HCl at pH 6.8, 0.1% v/v 2-mercaptoethanol and 0.1% w/v bromophenol blue). The products were resolved using a 13% SDS-polyacrylamide gel. The proteins were stained with Coomassie Blue-R250.

ATCC25922 E. coli = assay: Ciprofloxacin resistance assay and reconstruction assay (in vitro mutagenesis); type: cell-based, Escherichia coli
Experimental: An in vitro mutagenesis assay [1] was used to measure the ability of 4,4-Fe-PcTs to block the acquisition of ciprofloxacin-induced resistance in ATCC25922 E. coli. ATCC25922 cells were plated on media containing ciprofloxacin in the presence or absence of 4,4-Fe-PcTs and cultured for 10 days. Colonies that appeared early in the assay (days 1 and 2) are believed to arise from pre-existing ciprofloxacin resistance mutations [1]. Colonies that appear later in the incubation (days 3 to 8) are due to ciprofloxacin resistance mutations acquired during exposure to ciprofloxacin or pre-existing mutations with a slow growth phenotype [1].
To distinguish between these two types of mutants, a reconstruction assay that tests for the time it takes for colonies to appear in the presence of ciprofloxacin was used. Colonies that appear at least two days faster than they appeared in the original ciprofloxacin mutagenesis screen were classified as colonies that acquire resistance after exposure to ciprofloxacin [1]. Colonies that appeared in the same number of days as in the ciprofloxacin resistance assay were classified as colonies with pre-existing mutations [1].
Twenty-five independent colonies of ATCC2592 were used to inoculate 25 LB broth cultures that were incubated at 37° C. for 25 hours. Viable cell counts in these cultures were determined by plating serial dilutions onto LB agar plates. One hundred microliters from each culture (˜10^8 cells) were plated in duplicate on LB agar containing ciprofloxacin (CFX) (40 nM) or ciprofloxacin (40 nM) and 4,4-Fe-PcTs (25 μM) (CFX+4,4-Fe-PcTs). Three additional 100 μL aliquots from three cultures were also plated on the same media to determine the number of viable cells per day. At 24 hour intervals, visible colonies were counted, removed from the plate, and stored at −80° C. for later use in the reconstruction assay and sequencing. Every 24 hours, in parallel with the resistance assay, small plugs of agar between visible colonies were excised from resistance assay plates. Agar plugs were homogenized in M9 buffer. Dilutions were plated in duplicate on LB plates to determine the total number of viable cells per day. The cells were also plated on LB containing CFX (40 nM) to determine if any CFX-resistant colonies remained after excision [1].
Reconstruction assays were used to determine whether ciprofloxacin resistant colonies were due to post-exposure mutation or due to mutation prior to ciprofloxacin exposure. Ciprofloxacin resistant clones isolated from the resistance assay were grown to saturation in LB media in 96 well plates. Cultures were then replica-plated in duplicate using a 96-pin replicator on LB plates to confirm viability and LB plates containing ciprofloxacin (40 nM) to confirm ciprofloxacin resistance. Ciprofloxacin-resistant clones that were isolated in the presence 4,4-Fe-PcTs were replica plated on LB and LB containing 4,4-Fe-PcTs (25 μM) and ciprofloxacin (40 nM). Clones that were resistant before ciprofloxacin exposure were defined as clones that formed colonies on the ciprofloxacin-containing media in the same number of days in the reconstruction assay as in the original resistance assay. Clones that mutated after exposure to ciprofloxacin were defined as clones that formed colonies earlier than in the original resistance assay [1].
The rate of ciprofloxacin resistance was defined as the number of ciprofloxacin-resistant mutants per viable cell that evolve as a function of time. […]

EcRecA = EcRecA (Escherichia coli, UniProt P0A7G6); settings: compound 10 μM; poly-(dT)36-stimulated; relative to reaction without inhibitor
EcRecA, sequence (P0A7G6 whole entry): as above
Experimental: An ATPase assay [18] was used to screen a set of commercially available anionic, aromatic molecules for inhibitors of RecA ATPase activity. The release of inorganic phosphate by ATP hydrolysis was monitored using a Malachite Green phosphate assay [18]. The ssDNA-dependent ATPase reaction contained 1 μM EcRecA, 6 μM ssDNA (poly-(dT)36, concentration in nucleotides), 5 mM ATP, 50 mM Tris-Hepes buffer at pH 7.4, 10 mM MgCl2, 0.1% v/v 2-mercaptoethanol, and indicated amounts of 4,4-Fe-PcTs or 3,4-Cu-PcTs. Phosphate levels were measured by transferring 25 μl of ATPase reaction to 475 μl of malachite green phosphate assay, which contained 0.033% w/v Malachite Green, 1.3% w/v ammonium molybdate. 1.0 M HCl was used to monitor the release of inorganic phosphate by ATP hydrolysis [18]. The green complex formed between Malachite Green, molybdate, and free orthophosphate was measured by recording the absorbance at 620 nm.
Results are the average of two independent experiments where the deviation was less than 10%.

iron (III) phthalocyanine-4,4′,4″,4′″-tetrasulfonic acid [4,4-Fe-PcTs]
CFUs on co-treatment with ampicillin (E. coli strain ATCC25922; 4,4-Fe-PcTs 25 μM + AMP 40 μM, after 24 hours): eliminating all CFUs | effect on activity of chloramphenicol (bacteriostatic) (E. coli strain ATCC25922; 4,4-Fe-PcTs 25 μM + CAM 46 μM): very slight effect | CFUs on co-treatment with ciprofloxacin (E. coli strain ATCC25922; 4,4-Fe-PcTs 25 μM + CFX 40 nM, after 24 hours): eliminating all CFUs | CFUs on co-treatment with kanamycin (E. coli strain ATCC25922; 4,4-Fe-PcTs 25 μM + KAN 43 μM, after 24 hours): eliminating all CFUs | effect on activity of spectinomycin (bacteriostatic) (E. coli strain ATCC25922; 4,4-Fe-PcTs 25 μM + SPECT 808 μM): very slight effect | effect on activity of tetracycline (bacteriostatic) (E. coli strain ATCC25922; 4,4-Fe-PcTs 25 μM + TET 21 μM): very slight effect | potentiation of ciprofloxacin activity (E. coli strain ATCC25922; ciprofloxacin 40 nM): potentiated the activity of ciprofloxacin | colony forming units (CFUs) (E. coli strain ATCC25922; co-treated with ciprofloxacin 40 nM and compound at concentrations above 25 μM): no colony forming units (CFUs) were observed | potentiation of ciprofloxacin activity [1]: potentiated the activity of ciprofloxacin | effect on ampicillin-induced SOS response (GFP) ([2]; AMP 40 μM): reduced the ability | effect on ciprofloxacin-induced SOS response (GFP) ([2]; CFX 2.5 μM): reduced the ability | effect on ciprofloxacin-induced hydroxyl radicals (ATCC25922 cells): did not alter | effect on ciprofloxacin-induced biofilm formation (ATCC29522 cells): reduced the ability of ciprofloxacin to induce | inhibition of LexA cleavage (EcRecA / EcLexA): inhibited | total number of viable and ciprofloxacin-resistant cells relative to ciprofloxacin alone (ATCC25922 E. coli; 4,4-Fe-PcTs 25 μM + ciprofloxacin 40 nM): reduced | ciprofloxacin resistant mutants over time (ATCC25922 E. coli; cells treated with Fe-PcTs and ciprofloxacin): no ciprofloxacin resistant mutants were observed after day 4 | ciprofloxacin-resistant colonies caused by pre-existing mutations (ATCC25922 E. coli; ciprofloxacin (40 nM) and 4,4-Fe-PcTs (25 μM)): 60% | inhibition of EcRecA ATPase activity (EcRecA): high degree of inhibition
